Counter-ions that a name gives are not always drawn.

Assay [1] has as its system human platelet-rich plasma. The assay is described as follows: Platelet aggregation assay (Aggregation-Human PRP/ADP). It counts as cell-based. The following applies: 1 min; human platelet-rich plasma incubated with compound 1 minute at 37° C.; ADP-induced aggregation; read-out: Agg: Human PRP/ADP IC50uM. The method, boiled down:
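Citrated human PRP (~200-400,000 platelets/μl) from healthy volunteers, stirred, incubated with compound 1 min at 37° C. Aggregation was then triggered, most often by ADP 5 μM, or by 1 μg/ml collagen, 1 μM U46619 or 0.3 μM platelet activating factor, and read in an aggregometer with platelet-poor plasma as reference.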

Another assay addresses T1, GPIIb-IIIa (Homo sapiens, UniProt P05106+P08514).
T1 construct: Purified platelet GPIIb-IIIa receptor was prepared as described by Fitzgerald; from tissue; host or cells: platelets
T1 sequence (P08514 32-887 limits assumed): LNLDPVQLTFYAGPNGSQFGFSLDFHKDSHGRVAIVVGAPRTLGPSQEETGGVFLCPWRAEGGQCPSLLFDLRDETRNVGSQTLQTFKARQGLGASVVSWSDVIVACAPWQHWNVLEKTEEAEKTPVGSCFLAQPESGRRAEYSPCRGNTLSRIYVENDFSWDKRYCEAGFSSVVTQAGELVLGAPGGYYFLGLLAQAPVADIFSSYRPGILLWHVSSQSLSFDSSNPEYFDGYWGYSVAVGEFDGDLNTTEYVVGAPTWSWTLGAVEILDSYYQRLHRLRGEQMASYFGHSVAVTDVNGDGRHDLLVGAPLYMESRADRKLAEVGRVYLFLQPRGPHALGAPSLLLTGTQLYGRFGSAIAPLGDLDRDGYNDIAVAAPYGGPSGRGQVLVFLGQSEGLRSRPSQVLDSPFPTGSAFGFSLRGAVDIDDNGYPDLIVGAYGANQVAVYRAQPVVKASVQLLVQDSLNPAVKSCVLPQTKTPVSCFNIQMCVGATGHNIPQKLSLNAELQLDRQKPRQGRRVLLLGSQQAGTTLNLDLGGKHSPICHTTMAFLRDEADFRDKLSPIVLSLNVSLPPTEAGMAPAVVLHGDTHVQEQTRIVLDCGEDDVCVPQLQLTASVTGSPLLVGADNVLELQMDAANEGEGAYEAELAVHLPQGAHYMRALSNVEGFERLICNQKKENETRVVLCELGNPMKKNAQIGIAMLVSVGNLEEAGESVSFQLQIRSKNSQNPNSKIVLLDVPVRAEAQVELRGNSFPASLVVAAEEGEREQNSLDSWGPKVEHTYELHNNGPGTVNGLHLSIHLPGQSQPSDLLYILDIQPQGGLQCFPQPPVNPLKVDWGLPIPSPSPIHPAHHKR
T1 sequence (P05106 27-788): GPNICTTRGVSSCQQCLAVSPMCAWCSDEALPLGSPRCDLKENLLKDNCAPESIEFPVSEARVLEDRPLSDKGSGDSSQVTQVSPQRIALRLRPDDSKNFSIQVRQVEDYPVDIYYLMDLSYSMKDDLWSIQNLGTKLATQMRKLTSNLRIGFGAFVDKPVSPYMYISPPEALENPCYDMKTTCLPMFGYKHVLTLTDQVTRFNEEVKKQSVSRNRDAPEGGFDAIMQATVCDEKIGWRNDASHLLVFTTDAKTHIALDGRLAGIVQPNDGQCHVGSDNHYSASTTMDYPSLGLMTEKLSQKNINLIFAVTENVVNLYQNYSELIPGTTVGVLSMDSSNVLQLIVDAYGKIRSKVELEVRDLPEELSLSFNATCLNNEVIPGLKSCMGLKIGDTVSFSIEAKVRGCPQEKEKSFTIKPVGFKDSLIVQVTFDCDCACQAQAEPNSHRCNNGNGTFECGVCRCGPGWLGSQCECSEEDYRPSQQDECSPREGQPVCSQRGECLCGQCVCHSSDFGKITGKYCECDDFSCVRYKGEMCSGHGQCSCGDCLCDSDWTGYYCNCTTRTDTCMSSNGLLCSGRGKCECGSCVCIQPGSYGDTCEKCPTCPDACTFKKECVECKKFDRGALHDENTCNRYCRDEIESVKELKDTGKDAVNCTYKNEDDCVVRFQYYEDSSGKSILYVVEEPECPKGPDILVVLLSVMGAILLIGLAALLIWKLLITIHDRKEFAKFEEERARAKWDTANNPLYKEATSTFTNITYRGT
The assay is described as follows: ELISA IIb-IIIa assay (fibrinogen binding to immobilized GPIIb-IIIa). Particulars: purified platelet GPIIb-IIIa receptor coated on ELISA plates; biotin-labeled fibrinogen 10 nM, 3 hours at 25° C. The method, boiled down:
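Purified platelet GPIIb-IIIa was coated overnight at 4° C in Tris/NaCl/CaCl2 pH 7.4 and BSA-blocked. Biotinylated fibrinogen (10 nM final) was incubated with test compounds for 3 h at 25° C in Ca2+-containing binding buffer. Bound ligand was detected by anti-biotin–alkaline phosphatase with pNPP, OD 405.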
A general note: ELISA stands for enzyme-linked immunosorbent assay.

Regarding `CCCNC(=N)c1ccc(C(=O)Nc2ccc3c(c2)CCC(CC(=O)O)O3)cc1` (racemic) [Example 82, rac-(3,4-Dihydro-6-(N-(4-((propylamino)iminomethyl)benzoyl)amino)-2H-1-benzopyran-2-yl)acetic Acid], the results for the IC50 (in assay [1]; at GPIIb-IIIa) were 0.12 µM and 19 nM, respectively.
As for `N=C(N)c1ccc(C(=O)Nc2ccc3c(c2)CCN(CC(=O)O)C3=O)cc1` [Example 4, 6-[[(4-(Aminoiminomethyl)benzoy]amino]-3,4-dihydro-1-oxo-2(1H)-isoquinoline Acetic Acid Trifluoroacetate], the IC50 in assay [1] turned out to be 0.1 µM; at GPIIb-IIIa, 3.3 nM.
Take `N=C(N)c1ccc(C(=O)Nc2ccc3c(c2)CCC(CC(=O)O)=C3)cc1` [Example 31]: the results for the IC50 (in assay [1]; on GPIIb-IIIa) were 15 µM and 16 nM, respectively.
Taken in the same sequence, the figures for `CCOC(=O)CC1CCc2cc(NC(=O)c3ccc(C(=N)NC)cc3)ccc2O1` (racemic) [Example 57, Hydrochloride] were 0.66 µM and more than 10000 nM.
Taken in the same sequence, the figures for `N=C(N)c1ccc(COc2ccc3c(c2)CCN(CC(=O)O)C3)cc1` [Example 35] were 0.33 µM and 30 nM.
In the case of `CCOC(=O)CC1CCc2cc(NC(=O)c3ccc(C(=N)N(C)C)cc3)ccc2O1` (racemic) [Example 73, Hydrochloride], the IC50 was 1.2 µM in assay [1] and more than 10000 nM at GPIIb-IIIa.
Consider `N=C(N)c1ccc(CCc2ccc3c(c2)CCN(CC(=O)O)C3=O)cc1` [Example 3, 6-[2-[4-(Aminoiminomethyl)phenyl]ethyl]-3,4-dihydro-1-oxo-2(1H)-isoquinoline Acetic Acid Trifluoroacetate], for which the IC50 was determined as 1 µM in assay [1] and 110 nM at GPIIb-IIIa.
On to `CCC(CC(=O)O)N1CCc2cc(OCc3ccc(C(=N)N)cc3)ccc2C1=O` (racemic) [Example 14, (+−)-6-[[4-(Aminoiminomethyl)phenyl]methoxy]b-ethyl-3,4-dihydro-1-oxo-2(1H)-isoquinoline Propanoic Acid Trifluoroacetate], for which the IC50 in assay [1] was 0.4 µM; on GPIIb-IIIa, 45 nM.
Take `N=C(N)c1cccc(CCc2ccc3c(c2)CCN(CC(=O)O)C3=O)c1` [Example 18, 6-[2-[3-(Aminoiminomethyl)phenyl]ethyl]-3,4-dihydro-1-oxo-2(1H)-isoquinoline Acetic Acid Trifluoroacetate]: the results for the IC50 (in assay [1]; at GPIIb-IIIa) were more than 100 µM and 11000 nM, respectively.
On to `N=C(N)c1ccc(C(=O)Nc2ccc3c(c2)OCC(OCC(=O)O)C3)cc1` (stereo not shown) [Example 41], for which the IC50 was found to be 0.3 µM in assay [1] and 46 nM at GPIIb-IIIa.
Taken in the same sequence, the figures for `CCCC(CC(=O)O)N1CCc2cc(OCc3ccc(C(=N)N)cc3)ccc2C1=O` (racemic) [Example 15, (+−)-6-[[4-(Aminoiminomethyl)phenyl]methoxy]-3,4-dihydro-1-oxo-b-propyl-2 (1H)-isoquinoline Propanoic Acid Trifluoroacetate] were 0.23 µM and 500 nM.
Take `N=C(N)c1ccc(C#Cc2ccc3c(c2)CCN(CC(=O)O)C3=O)cc1` [Example 2, 6-[[4-(Aminoiminomethyl)phenyl]ethynyl]-3,4-dihydro-1-oxo-2(1H)-isoquinoline Acetic Acid Trifluoroacetate]: the results for the IC50 (in assay [1]; on GPIIb-IIIa) were 0.52 µM and 30 nM, respectively.
In the same order, the values of `N=C(N)c1ccc(C(=O)Nc2ccc3c(c2)CCN(CC(=O)O)C3)cc1` [Example 36] are 0.17 µM and 5 nM.
With `O=C(O)CC1CCc2cc(NC(=O)/C=C/C3CCNCC3)ccc2O1` (racemic) [Example 78, rac-(3,4-Dihydro-6-(N-(3-(piperidine-4-yl)propenoyl)amino)-2H-1-benzopyran-2-yl)acetic Acid], the figures for the IC50 (in assay [1]; on GPIIb-IIIa) were 0.18 µM and 20 nM, respectively.
With `CCNC(=N)c1ccc(C(=O)Nc2ccc3c(c2)CCC(CC(=O)OCC)O3)cc1` (racemic) [Example 71, Hydrochloride], the IC50 in assay [1] is 1.5 µM; at GPIIb-IIIa it was more than 10000 nM.
`CNC(=O)C(CC(=O)O)N1CCc2cc(OCc3ccc(C(=N)N)cc3)ccc2C1=O` (racemic) [Example 8, (+−)-6-[[4-(Aminoiminomethyl)phenyl]methoxy]-3,4-dihydro-beta-[(methylamino)carbonyl]-1-oxo-2(1H)-isoquinoline Propanoic Acid Trifluoroacetate]: the IC50 was 0.55 µM in assay [1] and 80 nM on GPIIb-IIIa.
Taken in the same sequence, the figures for `N=C(N)c1ccc(COc2ccc3c(c2)CCN(C(CC(=O)O)C(=O)NCc2ccccc2)C3=O)cc1` (racemic) [Example 6, (+−)-6-[[4-(Aminoiminomethyl)phenyl]methoxy]-3,4-dihydro-1-oxo-beta-[[(phenylmethyl)amino]carbonyl]-2(1H)-isoquinoline Propanoic Acid Trifluoroacetate] were 0.7 µM and 50 nM.
Take `CC1(CCC(=O)O)CCc2cc(NC(=O)c3ccc(C(=N)N)cc3)ccc2O1` (racemic) [Example 56, rac-3-(6-(N-(4-(Aminoiminomethyl)benzoyl)amino)-3,4-dihydro-2-methyl-2H-1-benzopyran-2-yl)propanoic Acid]: the results for the IC50 (in assay [1]; on GPIIb-IIIa) were 0.9 µM and 140 nM, respectively.
In the case of `CCOCCCC(CC(=O)O)N1CCc2cc(OCCCC3CCNCC3)ccc2C1=O` (stereo not shown) [Example 22, 6-[4-(Piperidn-4-yl)propyloxy]-3,4-dihydro-1-oxo-B-(3-ethoxypropyl)-1-oxo-2(1H)-isoquinoline Propanoic Acid Trifluoroacetate], the IC50 in assay [1] was 2 µM; on GPIIb-IIIa, 200 nM.
With `COc1ccc(CCNC(=O)C(CC(=O)O)N2CCc3cc(OCc4ccc(C(=N)N)cc4)ccc3C2=O)cc1` (racemic) [Example 7, (+−)-6-[[4-(Aminoiminomethyl)phenyl]methoxy]-3,4-dihydro-1-oxo-beta-[[(4-methoxyphenyl Ethyl)amino]carbonyl]-2(1H)-isoquinoline Propanoic Acid Trifluoroacetate], the values for the IC50 (in assay [1]; at GPIIb-IIIa) were 2 µM and 15 nM, respectively.
With `N=C(N)c1ccc(COc2ccc3c(c2)CCC(CC(=O)O)C3)cc1` (racemic) [Example 20, (+−)-6-[[(4-Aminoimidomethyl)phenyl]methoxy]-1,2,3,4-tetrahydronapthylene-2-acetic Acid Trifluoroacetate], the IC50 in assay [1] came to 20 µM; on GPIIb-IIIa it was 300 nM.
Taken in the same sequence, the figures for `CCOC(=O)CC1CCc2cc(NC(=O)c3ccc(C(=N)NC(=O)OC)cc3F)ccc2O1` (racemic) [Example 88, Ethyl rac-(3,4-Dihydro-6-(N-(2-fluoro-4-((methoxycarbonylamino)iminomethyl)benzoyl)amino)-2H-1-benzopyran-2-yl)acetate] were 0.084 µM and 99 nM.
In the same order, the values of `N=C(NCc1ccccc1)c1ccc(C(=O)Nc2ccc3c(c2)CCC(CC(=O)O)O3)cc1` (racemic) [Example 93, rac-(3,4-Dihydro-6-(N-(4-(N′-(phenylmethylamino)iminomethyl)benzoyl)amino)-2H-1-benzopyran-2-yl)acetic Acid] are 0.086 µM and 9.4 nM.

The record behind these values is patent US6448269B1 (Eli Lilly and Company, priority 1993, dated 2002).
